By pIC50 is commonly meant the IC50 on a negative log10 scale, so that one unit is a factor of ten.

The structures appear in SMILES notation. pIC50: −log10 of the molar value.

This passage reports IC50 results from patent EP4778931A1, “ULK1 INHIBITOR, PREPARATION METHOD THEREFOR AND USE THEREOF” (Dovetree Medicines Unus, Inc., priority 2023, dated 2025).

The target in this assay is T1, ULK1 (Homo sapiens, UniProt O75385).
T1 construct: purchased Promega V3521
T1 sequence (O75385 1-1050): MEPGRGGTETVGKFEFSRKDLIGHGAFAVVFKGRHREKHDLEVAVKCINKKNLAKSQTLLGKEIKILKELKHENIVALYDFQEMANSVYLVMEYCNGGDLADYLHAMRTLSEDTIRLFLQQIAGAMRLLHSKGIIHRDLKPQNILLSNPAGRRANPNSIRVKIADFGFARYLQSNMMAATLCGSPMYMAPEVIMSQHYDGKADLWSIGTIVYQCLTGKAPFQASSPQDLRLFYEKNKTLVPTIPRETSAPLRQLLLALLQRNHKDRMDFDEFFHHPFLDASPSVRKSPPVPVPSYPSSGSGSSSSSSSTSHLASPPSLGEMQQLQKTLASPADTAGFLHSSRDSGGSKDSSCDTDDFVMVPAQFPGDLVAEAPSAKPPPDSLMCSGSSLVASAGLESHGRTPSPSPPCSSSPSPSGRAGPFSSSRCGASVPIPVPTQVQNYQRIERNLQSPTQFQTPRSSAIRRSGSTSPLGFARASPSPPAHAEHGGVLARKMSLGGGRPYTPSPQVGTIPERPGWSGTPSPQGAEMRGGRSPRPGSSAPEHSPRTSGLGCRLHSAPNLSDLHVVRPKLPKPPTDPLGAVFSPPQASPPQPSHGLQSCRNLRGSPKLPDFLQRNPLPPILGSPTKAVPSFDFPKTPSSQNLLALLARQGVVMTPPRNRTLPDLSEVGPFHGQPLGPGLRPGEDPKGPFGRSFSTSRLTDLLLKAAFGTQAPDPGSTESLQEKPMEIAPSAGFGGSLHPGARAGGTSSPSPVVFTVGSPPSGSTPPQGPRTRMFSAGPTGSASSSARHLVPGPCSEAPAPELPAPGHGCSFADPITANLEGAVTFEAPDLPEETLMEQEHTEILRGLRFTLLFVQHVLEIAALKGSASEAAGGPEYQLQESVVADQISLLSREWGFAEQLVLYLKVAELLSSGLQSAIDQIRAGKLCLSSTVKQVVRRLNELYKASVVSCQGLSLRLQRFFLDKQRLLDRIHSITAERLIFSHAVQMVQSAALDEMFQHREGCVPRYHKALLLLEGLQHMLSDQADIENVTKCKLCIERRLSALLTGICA
The assay can be described thus: Inhibition of ULK1 protein activity (phosphorylation function), ADP-Glo method. To be noted: ADP-Glo; ULK1 (Promega), ATP and MBP substrate, 60 min at room temperature; 10 concentrations, maximum 10 µM; read-out: ULK1 IC50. The assay is classed as biochemical. The method, then: In this experiment, the inhibitory effect of a compound on the phosphorylation function of ULK1 was detected by ADP-Glo method. The inhibitory effect of the compound of the present disclosure on the ULK1 target was evaluated based on IC50.
Compound formulation: Using an ECHO (Beckman, ECHO650), the compound was serially diluted 3-fold in DMSO in a 384-well plate (PE, 6007290). A total of 10 concentration points were set, with the maximum concentration of the compound being 10 µM, and 50 nL per well. Positive control wells and negative control wells were added with 50 nL DMSO, respectively.
Reaction process: A 32 nM of ULK1 (Promega, V3521) solution was formulated, and 2.5 µL/well was transferred to the compound test wells and the negative control wells (NC). 2.5 µL/well of 1× Assay buffer was added to the positive control wells (PC). A mixed solution of 100 µM of ATP and 1.86 µM of MBP was formulated, and 2.5 µL/well was transferred to the reaction plate. After centrifugation, the reaction was initiated and incubated at room temperature for 60 min. After the reaction was completed, 5 µL/well of ADP-Glo Reagent (Promega, V9102) was added to the reaction plate. After centrifugation, the reaction was incubated at room temperature for 40 minutes. Finally, 10 µL/well of Kinase Detection Buffer was added, followed by centrifugation and incubation at room temperature for 30 min. The chemiluminescence value was read using Envision (PE, Envision2105).
Assay buffer: a reaction buffer; and Kinase Detection buffer: a detection buffer, both were taken from the ADP-Glodetection kit, purchased from Promega, model V9102.
The inhibition ratio of a compound on ULK1 activity was calculated using the following formula: [formula]
The dose-effect curve was fitted using the log(inhibitor) vs. response -Variable slope of the analysis software GraphPad Prism 8, thereby affording the IC50 value of each compound for enzyme activity.
Regarding `CN1CCN2c3ccc(Nc4ncc(C(F)(F)F)c(OCCCn5nccc5Cl)n4)cc3COCC2C1` (centres unmarked) [Compound 10], the pIC50 is greater than 7.00.

For `CN1CCC2(CCN(c3nc(Nc4ccc5c(c4)COCC4CN(C6COC6)CCN54)ncc3C(F)(F)F)C2)C1` (centres unmarked) [Compound 19], the pIC50 is greater than 7.00.

Consider `CN1CCN2c3ccc(Nc4ncc(C(F)(F)F)c(OCCCN5CCCCC5=O)n4)cc3N(C)C(=O)C2C1` (centres unmarked) [Compound 14], for which the pIC50 is greater than 7.00.

With `CN1CCC2(CC1)CCN(c1nc(Nc3ccc4c(c3)COCC3CN(C)CCN43)ncc1C(F)(F)F)CC2` (centres unmarked) [Compound 13], the pIC50 is 6.00 to 7.00.

In the case of `CN1CCN2c3ccc(Nc4ncc(C(F)(F)F)c(OCCCN5CCCOC5=O)n4)cc3COCC2C1` (centres unmarked) [Compound 16], the pIC50 was greater than 7.00.

`CN1CCN2c3ccc(Nc4ncc(C(F)(F)F)c(OCCCN5CCCCC5=O)n4)cc3OCCC2C1` (centres unmarked) [Compound 15]: the negative logarithm of the IC50 (pIC50) is greater than 7.00.

`CN1CCN2c3ccc(Nc4ncc(C(F)(F)F)c(O[C@H]5CC[C@@H](n6cccn6)CC5)n4)cc3COCC2C1` (some centres unmarked) [Compound 7]: the negative-log IC50 (pIC50) was greater than 7.00.

As to `CC(=O)N1CCN2c3ccc(Nc4ncc(C(F)(F)F)c(N5CCC6(CCN(C)C6)C5)n4)cc3COCC2C1` (centres unmarked) [Compound 18], the pIC50 was greater than 7.00.
